Assay results as given in the supplement of paper PMC10307832.

How the values were obtained:
Assay in all cases: relative viability (nuclei count vs DMSO), 5 days (fraction); higher = more cells survive
H3255 = system: H3255
How it was run: (§1)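 Relative viability divides the nuclei count in treated wells by that in vehicle wells. Lung cancer cell lines were seeded in 1536-well plates, dosed by pin tool the next day, and fixed and stained after 5 days in one step with final 0.05% Triton X-100, 1% formaldehyde and 1 ug/ml Hoechst. Dosing was a single drug or a fixed anchor-drug dose plus five library-drug doses (not always all listed) in √10 steps, and values are medians of duplicate plates imaged at 4×.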

NCI-H596 = system: NCI-H596
How it was run: as §1

UMC-11 = system: UMC-11
How it was run: as §1

NCI-H322M = system: NCI-H322M
How it was run: as §1

NCI-H838 = system: NCI-H838
How it was run: as §1

NCI-H2087 = system: NCI-H2087
How it was run: as §1

LCLC-97TM1 = system: LCLC-97TM1
How it was run: as §1

BEN = system: BEN
How it was run: as §1

NCI-H661 = system: NCI-H661
How it was run: as §1

HCC-78 = system: HCC-78
How it was run: as §1

PC-3 [JPC-3] = system: PC-3 [JPC-3]
How it was run: as §1

SK-MES-1 = system: SK-MES-1
How it was run: as §1

LK-2 = system: LK-2
How it was run: as §1

NCI-H1944 = system: NCI-H1944
How it was run: as §1

HCC-15 = system: HCC-15
How it was run: as §1

LU99A = system: LU99A
How it was run: as §1

NCI-H1651 = system: NCI-H1651
How it was run: as §1

NCI-H358 = system: NCI-H358
How it was run: as §1

LC-2-ad = system: LC-2-ad
How it was run: as §1

LXF-289 = system: LXF-289
How it was run: as §1

NCI-H1666 = system: NCI-H1666
How it was run: as §1

NCI-H650 = system: NCI-H650
How it was run: as §1

## CC(C)Oc1cc(Nc2nc(N[C@@H](C)c3ccc(F)cn3)ncc2Cl)n[nH]1 [AZ23] + CS(=O)(=O)CCNCc1ccc(-c2ccc3ncnc(Nc4ccc(OCc5cccc(F)c5)c(Cl)c4)c3c2)o1 [Lapatinib] (partner 2 µM)
H3255; first compound 0.01 µM
  relative viability: 0.203
H3255; first compound 0.03162 µM
  relative viability: 0.252
H3255; first compound 0.3162 µM
  relative viability: 0.279
NCI-H596; first compound 0.01 µM
  relative viability: 1.03
NCI-H596; first compound 0.03162 µM
  relative viability: 1.11
NCI-H596; first compound 0.3162 µM
  relative viability: 1.03
UMC-11; first compound 0.01 µM
  relative viability: 0.946
UMC-11; first compound 0.03162 µM
  relative viability: 0.994
UMC-11; first compound 0.3162 µM
  relative viability: 1.02
NCI-H322M; first compound 0.01 µM
  relative viability: 0.575
NCI-H322M; first compound 0.03162 µM
  relative viability: 0.621
NCI-H322M; first compound 0.3162 µM
  relative viability: 0.614
NCI-H838; first compound 0.01 µM
  relative viability: 0.99
NCI-H838; first compound 0.03162 µM
  relative viability: 1.06
NCI-H838; first compound 0.3162 µM
  relative viability: 0.908
NCI-H2087; first compound 0.01 µM
  relative viability: 1.17
NCI-H2087; first compound 0.03162 µM
  relative viability: 1.17
NCI-H2087; first compound 0.3162 µM
  relative viability: 1.05
LCLC-97TM1; first compound 0.01 µM
  relative viability: 0.881
LCLC-97TM1; first compound 0.03162 µM
  relative viability: 0.842
LCLC-97TM1; first compound 0.3162 µM
  relative viability: 1.23
BEN; first compound 0.01 µM
  relative viability: 0.807
BEN; first compound 0.03162 µM
  relative viability: 0.906
BEN; first compound 0.3162 µM
  relative viability: 0.708
NCI-H661; first compound 0.01 µM
  relative viability: 0.432
NCI-H661; first compound 0.03162 µM
  relative viability: 0.633
NCI-H661; first compound 0.3162 µM
  relative viability: 0.545
HCC-78; first compound 0.01 µM
  relative viability: 0.469
HCC-78; first compound 0.03162 µM
  relative viability: 1
HCC-78; first compound 0.3162 µM
  relative viability: 0.456
PC-3 [JPC-3]; first compound 0.01 µM
  relative viability: 0.464
PC-3 [JPC-3]; first compound 0.03162 µM
  relative viability: 0.489
PC-3 [JPC-3]; first compound 0.3162 µM
  relative viability: 0.454
SK-MES-1; first compound 0.01 µM
  relative viability: 0.492
SK-MES-1; first compound 0.03162 µM
  relative viability: 0.484
SK-MES-1; first compound 0.3162 µM
  relative viability: 0.491
LK-2; first compound 0.01 µM
  relative viability: 0.958
LK-2; first compound 0.03162 µM
  relative viability: 1.3
LK-2; first compound 0.3162 µM
  relative viability: 0.685
NCI-H1944; first compound 0.01 µM
  relative viability: 0.789
NCI-H1944; first compound 0.03162 µM
  relative viability: 0.88
NCI-H1944; first compound 0.3162 µM
  relative viability: 0.903
HCC-15; first compound 0.01 µM
  relative viability: 1.08
HCC-15; first compound 0.03162 µM
  relative viability: 0.839
HCC-15; first compound 0.3162 µM
  relative viability: 0.784
LU99A; first compound 0.01 µM
  relative viability: 1.2
LU99A; first compound 0.03162 µM
  relative viability: 1.08
LU99A; first compound 0.3162 µM
  relative viability: 1.09
NCI-H1651; first compound 0.01 µM
  relative viability: 0.685
NCI-H1651; first compound 0.03162 µM
  relative viability: 0.921
NCI-H1651; first compound 0.3162 µM
  relative viability: 0.973
NCI-H358; first compound 0.01 µM
  relative viability: 0.505
NCI-H358; first compound 0.03162 µM
  relative viability: 0.433
NCI-H358; first compound 0.3162 µM
  relative viability: 0.392
LC-2-ad; first compound 0.01 µM
  relative viability: 1.32
LC-2-ad; first compound 0.03162 µM
  relative viability: 0.997
LC-2-ad; first compound 0.3162 µM
  relative viability: 0.912
LXF-289; first compound 0.01 µM
  relative viability: 1.01
LXF-289; first compound 0.03162 µM
  relative viability: 0.932
LXF-289; first compound 0.3162 µM
  relative viability: 0.884
NCI-H1666; first compound 0.01 µM
  relative viability: 0.747
NCI-H1666; first compound 0.03162 µM
  relative viability: 0.565
NCI-H1666; first compound 0.3162 µM
  relative viability: 0.591
NCI-H650; first compound 0.01 µM
  relative viability: 0.649
NCI-H650; first compound 0.03162 µM
  relative viability: 1.19
NCI-H650; first compound 0.3162 µM
  relative viability: 0.849
